Assay results taken from US10875874B2, “Ginkgolide B derivative and preparation method and use thereof” (Chengdu Baiyu Ginkgolide Pharmaceuticals Co., Ltd., priority 2015, dated 2020).
Values after ≈ are worked out from the molar mass of the structure shown. Marks after values point to notes of the source that are not given here.

Tests used:
[1] = Weekly food intake of SHR rats; type: in vivo, rat
Method: (§1) 2.1 Grouping and administration of animals: 112 SHR rats (the female and male SHR rats are half and half, and the female rats are not pregnant) with the body weight of 200-250 g are taken, the rats are enabled to adapt to a laboratory for a period of 5 d, blood pressure is measured once at a day to enable the rats to adapt to the environment and detect stimulation. Then, weighing and numbering are carried out, and the SHR rats are equally divided into 14 groups randomly (each group comprises 8 rats), i.e., an SHR rat model control group, a positive control group (captopril, 27 mg/kg), a BZ large-dose group (120 mg/kg/d), a BZ small-dose group (60 mg/kg/d), a BA large-dose group (120 mg/kg/d), a BA small-dose group (60 mg/kg/d), a BL large-dose group (120 mg/kg/d), a BL small-dose group (60 mg/kg/d), a BM large-dose group (120 mg/kg/d), a BM small-dose group (60 mg/kg/d), a BD large-dose group (120 mg/kg/d), a BD small-dose group (60 mg/kg/d), a GB large-dose group (120 mg/kg/d) and a GB small-dose group (60 mg/kg/d). In addition, 8 healthy Wistar rats are taken as a normal control group. Intragastric administration is performed on the rats of each drug group separately according to the above-mentioned doses by 1 mL/100 g body weight, intragastric administration is performed on the rats of the normal control group and the rats of the SHR rat model control group with an equal volume of distilled water, and administration is performed continuously for 8 weeks.
(§2) 2.2 General state: during observation, conditions such as mind, water drinking, food intake, bowel movement, hair color, body weight and range of motion of rats are observed. Irritable degrees of the rats are divided into III levels: a level I means that the rats are free of obvious response when necks of the rats are seized; a level II means that the rats scream and startle when the necks of the rats are seized; and a level III means that the rats bite or rats of same cages frequently fight when the necks of the rats are seized.
(§3) 3.1 Influence on general state of spontaneously hypertensive rats: the rats of the normal control group are normal in food intake, drinking and motion conditions, sensitive in response, healthy and glossy in hair color, good in mental state and free of any unusual response; the rats of the SHR model group gradually present that back hair is fluffy, clustered and dim, the appetite is reduced, the body weight is reduced, the mind is dispirited and irritable, and the rats are prone to the behaviors of intense resisting, attacking and so on during administration and blood pressure detection, and irritable degrees are mostly changed to a level II and a level III from a level I; and after single administration of ginkgolide B and derivatives thereof, behavioral general state observations of rats of each group are free of obvious difference from those of the model control group.

[2] = Weekly body weight of SHR rats; type: in vivo, rat
Method: as §1, §2, §3

[3] = test system: spontaneously hypertensive rats (SHR); assay: Caudal artery systolic pressure of spontaneously hypertensive rats, single administration; type: in vivo, rat; settings: x ± s, n = 8
Method: as §1
(§4) 2.3 Blood pressure measuring: caudal artery systolic pressure of rats is measured with a Bp-6 noninvasive blood pressure measuring system. Under the condition that the rats are calm, the systolic pressure is continuously measured for 3 times, and the average value of the measured systolic pressure is taken as a pressure measuring result. Observation indexes: (1) single-administration pressure lowering effect: blood pressure of the rats is measured before administration and blood pressure conditions are measured 30 min, 60 min, 90 min and 120 min after first administration; and (2) continuous-administration pressure lowering condition: blood pressure is separately measured 30 min after administration at 1 d, 7 d, 13 d, 19 d, 25 d, 35 d, 49 d and 56 d, the blood pressure is repeatedly measured for 3 times at a day, and the average value of obtained values is taken as a final blood pressure value.

[4] = test system: spontaneously hypertensive rats (SHR); assay: Caudal artery systolic pressure of spontaneously hypertensive rats, 8 weeks of continuous medication; type: in vivo, rat; settings: x ± s, n = 8
Method: as §1, §4

[5] = Water solubility test; settings: purified water, thermodynamic from solid
Method: Measuring method: samples are ground to obtain fine powder, target compounds are quantitatively weighed, the weighed compounds are added into purified water, and the solubility of the compounds is investigated by ultrasonics.

[6] = 60 mg/kg/d intragastric, week 0
[7] = 60 mg/kg/d intragastric, week 1
[8] = 60 mg/kg/d intragastric, week 2
[9] = 60 mg/kg/d intragastric, week 3
[10] = 60 mg/kg/d intragastric, week 4
[11] = 60 mg/kg/d intragastric, week 5
[12] = 60 mg/kg/d intragastric, week 6
[13] = 60 mg/kg/d intragastric, week 7
[14] = 60 mg/kg/d intragastric, week 8
[15] = 120 mg/kg/d intragastric, week 0
[16] = 120 mg/kg/d intragastric, week 1
[17] = 120 mg/kg/d intragastric, week 2
[18] = 120 mg/kg/d intragastric, week 3
[19] = 120 mg/kg/d intragastric, week 4
[20] = 120 mg/kg/d intragastric, week 5
[21] = 120 mg/kg/d intragastric, week 6
[22] = 120 mg/kg/d intragastric, week 7
[23] = 120 mg/kg/d intragastric, week 8

Cc1nc(C)c(C(=O)O[C@H]2C(=O)O[C@H]3O[C@]45C(=O)OC6C[C@@H](C(C)(C)C)C32[C@@]64[C@@H](O)[C@@H]2OC(=O)[C@@H](C)[C@@]25O)nc1C (some centres unmarked) [BZ]
Average dairy food intake [1, 6]: 18.1 g/day
Average dairy food intake [1, 7]: 19.5^▴ g/d
Average dairy food intake [1, 8]: 19.7^▴ g/d
Average dairy food intake [1, 9]: 20.4^▴▴ g/d
Average dairy food intake [1, 10]: 20.9^▴▴ g/d
Average dairy food intake [1, 11]: 21.7^▴▴ g/d
Average dairy food intake [1, 12]: 22.9^▴▴ g/d
Average dairy food intake [1, 13]: 24.0^▴▴ g/d
Average dairy food intake [1, 14]: 24.9^▴▴ g/d
Average dairy food intake [1, 15]: 18.0 g/day
Average dairy food intake [1, 16]: 19.3^▴ g/d
Average dairy food intake [1, 17]: 20.5^▴▴ g/d
Average dairy food intake [1, 18]: 22.0^▴▴ g/d
Average dairy food intake [1, 19]: 22.6^▴▴ g/d
Average dairy food intake [1, 20]: 23.6^▴▴ g/d
Average dairy food intake [1, 21]: 24.1^▴▴ g/d
Average dairy food intake [1, 22]: 24.9^▴▴ g/d
Average dairy food intake [1, 23]: 27.0^▴▴ g/d
Body weight [2, 6]: 231.0 g
Body weight [2, 7]: 235.7 g
Body weight [2, 8]: 242.5 g
Body weight [2, 9]: 251.6 g
Body weight [2, 10]: 259.4^▴ g
Body weight [2, 11]: 263.6^▴ g
Body weight [2, 12]: 269.1^▴▴ g
Body weight [2, 13]: 276.8^▴▴ g
Body weight [2, 14]: 288.0^▴▴ g
Body weight [2, 15]: 268.9 g
Body weight [2, 16]: 249.4^▴▴ g
Body weight [2, 17]: 256.7^▴▴ g
Body weight [2, 18]: 262.4^▴▴ g
Body weight [2, 19]: 268.9^▴▴ g
Body weight [2, 20]: 280.7^▴▴ g
Body weight [2, 21]: 291.3^▴▴ g
Body weight [2, 22]: 305.4^▴▴ g
Body weight [2, 23]: 320.9^▴▴ g
Systolic pressure ([3]; 60 mg/kg intragastric single administration, 30 min): 152.65 ± 10.48 mmHg
Systolic pressure ([3]; 60 mg/kg intragastric single administration, 60 min): 153.05 ± 16.39 mmHg
Systolic pressure ([3]; 60 mg/kg intragastric single administration, 90 min): 151.14 ± 10.87 mmHg
Systolic pressure ([3]; 60 mg/kg intragastric single administration, 120 min): 156.47 ± 12.47 mmHg
Systolic pressure ([3]; 60 mg/kg intragastric single administration, before administration): 163.58 ± 10.36 mmHg
Systolic pressure ([3]; 120 mg/kg intragastric single administration, 30 min): 150.00 ± 9.15 mmHg
Systolic pressure ([3]; 120 mg/kg intragastric single administration, 60 min): 152.95 ± 9.26 mmHg
Systolic pressure ([3]; 120 mg/kg intragastric single administration, 90 min): 156.28 ± 13.95 mmHg
Systolic pressure ([3]; 120 mg/kg intragastric single administration, 120 min): 169.36 ± 10.63 mmHg
Systolic pressure ([3]; 120 mg/kg intragastric single administration, before administration): 166.24 ± 12.14 mmHg
Systolic pressure ([4]; 60 mg/kg/d intragastric continuous, 1 d, 30 min after administration): 158.77 ± 11.06 mmHg
Systolic pressure ([4]; 60 mg/kg/d intragastric continuous, 7 d, 30 min after administration): 153.41 ± 14.08 mmHg
Systolic pressure ([4]; 60 mg/kg/d intragastric continuous, 13 d, 30 min after administration): 151.38 ± 9.47 mmHg
Systolic pressure ([4]; 60 mg/kg/d intragastric continuous, 19 d, 30 min after administration): 155.74 ± 10.62 mmHg
Systolic pressure ([4]; 60 mg/kg/d intragastric continuous, 25 d, 30 min after administration): 154.94 ± 9.64 mmHg
Systolic pressure ([4]; 60 mg/kg/d intragastric continuous, 35 d, 30 min after administration): 150.95 ± 5.04 mmHg
Systolic pressure ([4]; 60 mg/kg/d intragastric continuous, 49 d, 30 min after administration): 155.06 ± 6.37 mmHg
Systolic pressure ([4]; 60 mg/kg/d intragastric continuous, 56 d, 30 min after administration): 153.95 ± 14.01 mmHg
Systolic pressure ([4]; 60 mg/kg/d intragastric continuous, before administration): 163.58 ± 10.36 mmHg
Systolic pressure ([4]; 120 mg/kg/d intragastric continuous, 1 d, 30 min after administration): 154.69 ± 9.85 mmHg
Systolic pressure ([4]; 120 mg/kg/d intragastric continuous, 7 d, 30 min after administration): 153.74 ± 10.24 mmHg
Systolic pressure ([4]; 120 mg/kg/d intragastric continuous, 13 d, 30 min after administration): 150.39 ± 10.39 mmHg
Systolic pressure ([4]; 120 mg/kg/d intragastric continuous, 19 d, 30 min after administration): 149.72 ± 9.83 mmHg
Systolic pressure ([4]; 120 mg/kg/d intragastric continuous, 25 d, 30 min after administration): 149.02 ± 8.26 mmHg
Systolic pressure ([4]; 120 mg/kg/d intragastric continuous, 35 d, 30 min after administration): 151.72 ± 10.47 mmHg
Systolic pressure ([4]; 120 mg/kg/d intragastric continuous, 49 d, 30 min after administration): 153.42 ± 12.04 mmHg
Systolic pressure ([4]; 120 mg/kg/d intragastric continuous, 56 d, 30 min after administration): 148.62 ± 9.73 mmHg
Systolic pressure ([4]; 120 mg/kg/d intragastric continuous, before administration): 166.24 ± 12.14 mmHg
solubility [5]: 300 µg/mL (≈ 524 µM)
